According to paper PMC6757289, “Design and Characterization of SGK3-PROTAC1, an Isoform Specific SGK3 Kinase PROTAC Degrader” (ACS Chemical Biology, 2019):
Like-named read-outs stand apart in the source and are kept apart here.

What was measured:
Test in all cases: kinase profiling panel
Format in all cases: biochemical
Conditions in all cases: read-out: % Activity Remaining
JNK2 = JNK2 (Homo sapiens, UniProt P45984)
From the text: (§1) Protein kinase profiling against a Dundee panel of 140 protein kinases was undertaken at the International Centre for Protein Kinase Profiling. The result for each kinase was presented as a mean kinase activity of the reaction taken in triplicate relative to a control sample treated with DMSO. Assay conditions and abbreviations are available at http://www.kinase-screen.mrc.ac.uk.

PDK1 = target: T1, PDK1 (Homo sapiens, UniProt O15530)
T1 sequence (O15530 1-556): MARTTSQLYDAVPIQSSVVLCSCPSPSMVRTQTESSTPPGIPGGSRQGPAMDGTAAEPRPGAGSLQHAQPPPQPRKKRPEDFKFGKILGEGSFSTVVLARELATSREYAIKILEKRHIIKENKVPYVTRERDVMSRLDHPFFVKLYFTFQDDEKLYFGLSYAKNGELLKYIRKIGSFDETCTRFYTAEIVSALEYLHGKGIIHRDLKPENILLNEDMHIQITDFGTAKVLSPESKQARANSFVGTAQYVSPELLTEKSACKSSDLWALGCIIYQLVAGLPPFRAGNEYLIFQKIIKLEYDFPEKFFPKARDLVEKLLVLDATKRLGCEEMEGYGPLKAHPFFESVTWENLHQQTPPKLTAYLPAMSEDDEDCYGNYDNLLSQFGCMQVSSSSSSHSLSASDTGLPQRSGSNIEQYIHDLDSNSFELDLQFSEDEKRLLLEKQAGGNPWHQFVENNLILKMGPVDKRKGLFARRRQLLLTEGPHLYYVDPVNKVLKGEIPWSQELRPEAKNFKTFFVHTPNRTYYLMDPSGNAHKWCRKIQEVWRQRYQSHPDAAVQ
From the text: as §1

EPH-B1 = target: T2, EPH-B1 (Homo sapiens, UniProt P54762)
T2 sequence (P54762 18-984): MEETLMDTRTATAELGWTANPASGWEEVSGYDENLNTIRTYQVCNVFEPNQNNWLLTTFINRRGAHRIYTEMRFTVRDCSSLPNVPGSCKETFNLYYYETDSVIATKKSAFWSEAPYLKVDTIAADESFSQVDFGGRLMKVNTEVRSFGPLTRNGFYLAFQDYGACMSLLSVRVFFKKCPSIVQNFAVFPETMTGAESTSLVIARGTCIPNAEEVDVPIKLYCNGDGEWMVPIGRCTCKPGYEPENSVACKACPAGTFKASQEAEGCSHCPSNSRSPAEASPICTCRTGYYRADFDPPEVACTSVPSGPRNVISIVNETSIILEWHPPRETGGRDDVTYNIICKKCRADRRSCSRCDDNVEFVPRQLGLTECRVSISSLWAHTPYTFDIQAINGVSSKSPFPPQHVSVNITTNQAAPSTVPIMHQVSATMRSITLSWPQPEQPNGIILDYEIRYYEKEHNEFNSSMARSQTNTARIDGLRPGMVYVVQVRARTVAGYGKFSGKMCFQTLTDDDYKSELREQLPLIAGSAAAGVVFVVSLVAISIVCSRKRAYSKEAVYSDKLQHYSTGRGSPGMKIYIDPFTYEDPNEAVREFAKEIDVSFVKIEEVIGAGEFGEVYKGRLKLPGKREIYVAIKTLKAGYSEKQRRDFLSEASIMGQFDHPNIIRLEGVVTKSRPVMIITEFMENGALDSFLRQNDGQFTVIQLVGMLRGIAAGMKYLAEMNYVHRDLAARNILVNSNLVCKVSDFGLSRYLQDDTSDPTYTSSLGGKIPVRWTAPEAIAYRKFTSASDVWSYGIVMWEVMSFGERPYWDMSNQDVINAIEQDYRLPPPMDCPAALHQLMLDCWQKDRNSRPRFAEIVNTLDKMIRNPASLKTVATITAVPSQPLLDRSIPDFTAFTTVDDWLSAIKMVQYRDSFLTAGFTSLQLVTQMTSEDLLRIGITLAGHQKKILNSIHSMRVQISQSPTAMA
From the text: as §1

JAK2 = JAK2 (Homo sapiens, UniProt O60674)
Chain of JAK2 (O60674 whole entry): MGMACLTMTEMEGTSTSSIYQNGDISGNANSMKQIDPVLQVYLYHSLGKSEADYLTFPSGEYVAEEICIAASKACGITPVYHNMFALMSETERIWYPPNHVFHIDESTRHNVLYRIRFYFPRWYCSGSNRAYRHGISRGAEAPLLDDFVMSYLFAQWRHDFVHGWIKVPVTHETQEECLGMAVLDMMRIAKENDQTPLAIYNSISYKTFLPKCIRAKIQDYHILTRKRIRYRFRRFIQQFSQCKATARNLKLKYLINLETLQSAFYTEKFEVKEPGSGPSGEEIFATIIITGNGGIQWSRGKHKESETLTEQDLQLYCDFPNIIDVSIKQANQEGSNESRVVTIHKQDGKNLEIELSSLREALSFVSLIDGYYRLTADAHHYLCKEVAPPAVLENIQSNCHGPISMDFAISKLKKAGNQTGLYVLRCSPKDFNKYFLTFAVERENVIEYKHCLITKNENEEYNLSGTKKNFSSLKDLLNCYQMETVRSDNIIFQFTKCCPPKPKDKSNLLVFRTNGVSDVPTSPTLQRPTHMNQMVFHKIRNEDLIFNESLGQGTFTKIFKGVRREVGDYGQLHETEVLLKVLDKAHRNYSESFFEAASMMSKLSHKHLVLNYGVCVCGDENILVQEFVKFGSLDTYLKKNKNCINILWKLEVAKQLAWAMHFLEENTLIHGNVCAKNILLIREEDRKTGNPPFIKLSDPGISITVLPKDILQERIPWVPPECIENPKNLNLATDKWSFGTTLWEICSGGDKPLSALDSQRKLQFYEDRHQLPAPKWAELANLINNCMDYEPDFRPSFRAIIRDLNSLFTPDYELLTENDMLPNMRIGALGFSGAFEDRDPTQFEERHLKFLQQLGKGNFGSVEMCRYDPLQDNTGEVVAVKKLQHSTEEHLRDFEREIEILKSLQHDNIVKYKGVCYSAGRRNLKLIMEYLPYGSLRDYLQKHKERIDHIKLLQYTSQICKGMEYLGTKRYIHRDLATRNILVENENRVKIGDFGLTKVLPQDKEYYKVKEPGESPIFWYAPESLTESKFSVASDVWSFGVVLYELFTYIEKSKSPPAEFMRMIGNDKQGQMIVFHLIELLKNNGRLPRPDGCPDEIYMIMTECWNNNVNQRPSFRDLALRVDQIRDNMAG
From the text: as §1

SYK = SYK (Homo sapiens, UniProt P43405)
From the text: as §1

MINK1 = MINK1 (Homo sapiens, UniProt Q8N4C8)
Chain of MINK1 (Q8N4C8 whole entry): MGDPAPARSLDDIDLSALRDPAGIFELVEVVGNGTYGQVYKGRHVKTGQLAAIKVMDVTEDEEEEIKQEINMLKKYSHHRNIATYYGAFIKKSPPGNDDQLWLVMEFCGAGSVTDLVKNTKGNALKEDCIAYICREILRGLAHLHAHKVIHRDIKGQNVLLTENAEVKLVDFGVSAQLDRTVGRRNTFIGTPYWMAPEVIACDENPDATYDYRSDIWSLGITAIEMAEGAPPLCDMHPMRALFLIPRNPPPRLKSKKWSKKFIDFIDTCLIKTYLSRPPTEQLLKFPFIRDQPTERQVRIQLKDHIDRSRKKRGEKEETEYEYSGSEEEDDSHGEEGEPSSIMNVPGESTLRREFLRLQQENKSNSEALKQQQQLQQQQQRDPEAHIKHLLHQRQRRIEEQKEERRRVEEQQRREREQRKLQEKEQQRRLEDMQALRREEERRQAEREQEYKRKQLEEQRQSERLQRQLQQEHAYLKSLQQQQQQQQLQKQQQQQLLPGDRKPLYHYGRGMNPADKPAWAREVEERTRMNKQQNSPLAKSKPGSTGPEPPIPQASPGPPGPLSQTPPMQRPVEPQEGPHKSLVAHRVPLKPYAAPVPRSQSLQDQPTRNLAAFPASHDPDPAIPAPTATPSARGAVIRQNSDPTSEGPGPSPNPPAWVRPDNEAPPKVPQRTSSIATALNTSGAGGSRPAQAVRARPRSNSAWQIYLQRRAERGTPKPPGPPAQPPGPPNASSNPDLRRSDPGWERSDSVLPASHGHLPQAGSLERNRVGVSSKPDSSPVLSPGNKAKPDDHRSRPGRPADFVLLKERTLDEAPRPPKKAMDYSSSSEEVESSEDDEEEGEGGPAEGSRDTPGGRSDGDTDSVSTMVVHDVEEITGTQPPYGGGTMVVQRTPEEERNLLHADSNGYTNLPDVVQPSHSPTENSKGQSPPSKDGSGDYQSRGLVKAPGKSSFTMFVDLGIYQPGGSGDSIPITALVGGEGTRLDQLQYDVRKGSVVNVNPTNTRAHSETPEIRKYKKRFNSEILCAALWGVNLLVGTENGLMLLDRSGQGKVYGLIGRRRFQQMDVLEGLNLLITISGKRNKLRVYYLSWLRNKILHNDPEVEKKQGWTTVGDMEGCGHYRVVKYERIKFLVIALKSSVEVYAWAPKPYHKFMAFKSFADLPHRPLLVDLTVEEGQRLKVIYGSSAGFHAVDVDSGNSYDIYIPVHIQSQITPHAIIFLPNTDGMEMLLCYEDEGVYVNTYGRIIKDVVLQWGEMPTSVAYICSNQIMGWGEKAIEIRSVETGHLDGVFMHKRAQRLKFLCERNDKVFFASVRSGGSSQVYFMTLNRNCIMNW
From the text: as §1

IRAK4 = target: T3, IRAK4 (Homo sapiens, UniProt Q9NWZ3)
T3 sequence (Q9NWZ3 1-460): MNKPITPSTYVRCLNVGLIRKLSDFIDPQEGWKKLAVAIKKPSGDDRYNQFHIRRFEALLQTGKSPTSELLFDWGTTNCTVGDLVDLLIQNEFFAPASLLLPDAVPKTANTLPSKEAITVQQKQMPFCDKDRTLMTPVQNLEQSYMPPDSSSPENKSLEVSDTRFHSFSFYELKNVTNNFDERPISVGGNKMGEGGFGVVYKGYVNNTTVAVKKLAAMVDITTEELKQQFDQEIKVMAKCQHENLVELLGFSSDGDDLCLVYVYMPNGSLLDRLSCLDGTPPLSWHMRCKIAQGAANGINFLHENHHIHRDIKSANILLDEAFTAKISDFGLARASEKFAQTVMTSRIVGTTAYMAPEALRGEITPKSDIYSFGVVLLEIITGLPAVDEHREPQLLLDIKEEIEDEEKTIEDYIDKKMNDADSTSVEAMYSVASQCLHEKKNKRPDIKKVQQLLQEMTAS
From the text: as §1

Chain of JNK2 (P45984 whole entry): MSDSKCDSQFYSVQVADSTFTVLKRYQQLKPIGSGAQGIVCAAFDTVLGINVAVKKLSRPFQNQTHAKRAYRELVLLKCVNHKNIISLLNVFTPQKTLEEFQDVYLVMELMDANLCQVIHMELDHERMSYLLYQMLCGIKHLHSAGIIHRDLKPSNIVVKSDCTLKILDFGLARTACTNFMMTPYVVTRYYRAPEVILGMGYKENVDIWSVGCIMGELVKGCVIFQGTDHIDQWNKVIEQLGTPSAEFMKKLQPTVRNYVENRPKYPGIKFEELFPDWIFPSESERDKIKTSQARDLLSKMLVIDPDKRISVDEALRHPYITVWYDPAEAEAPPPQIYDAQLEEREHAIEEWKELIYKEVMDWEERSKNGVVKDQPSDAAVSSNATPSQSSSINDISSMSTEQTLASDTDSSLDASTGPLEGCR

Cc1ccc(F)c(S(=O)(=O)Nc2ccc(-c3nc(OC[C@H]4CN(CCCCCCOCCOCCOCC(=O)N[C@H](C(=O)N5C[C@H](O)C[C@H]5C(=O)NCc5ccc(-c6scnc6C)cc5)C(C)(C)C)CCO4)c4cn[nH]c4n3)cc2)c1 [SGK3-PROTAC1]
remaining activity at 1 µM (JNK2; 1 µM): 117% | remaining activity at 1 µM (PDK1; 1 µM): 99% | remaining activity at 1 µM (EPH-B1; 1 µM): 100% | remaining activity at 1 µM (JAK2; 1 µM): 95% | remaining activity at 1 µM (SYK; 1 µM): 116% | remaining activity at 1 µM (MINK1; 1 µM): 115% | remaining activity at 1 µM (IRAK4; 1 µM): 114%

Cc1ccc(F)c(S(=O)(=O)Nc2ccc(-c3nc(OC[C@H]4CNCCO4)c4cn[nH]c4n3)cc2)c1 [308-R, reference compound]
remaining activity at 1 µM (JNK2): 113% | remaining activity at 1 µM (PDK1): 88% | remaining activity at 1 µM (EPH-B1): 96% | remaining activity at 1 µM (JAK2): 94% | remaining activity at 1 µM (SYK): 100% | remaining activity at 1 µM (MINK1): 83% | remaining activity at 1 µM (IRAK4): 105%

COc1ccc(Cl)c(S(=O)(=O)Nc2ccc(-c3nc(OC[C@H]4CNCCO4)c4c(C)n[nH]c4n3)cc2)c1 [290-R, reference compound]
remaining activity at 1 µM (JNK2): 105% | remaining activity at 1 µM (PDK1): 117% | remaining activity at 1 µM (EPH-B1): 117% | remaining activity at 1 µM (JAK2): 112% | remaining activity at 1 µM (SYK): 88% | remaining activity at 1 µM (MINK1): 101% | remaining activity at 1 µM (IRAK4): 74%

Cc1ccc(F)c(S(=O)(=O)Nc2ccc(-c3nc(OC[C@H]4CN(CCCCCCOCCOCCOCC(=O)N[C@H](C(=O)N5C[C@@H](O)C[C@H]5C(=O)NCc5ccc(-c6scnc6C)cc5)C(C)(C)C)CCO4)c4cn[nH]c4n3)cc2)c1 [cisSGK3-PROTAC1]
remaining activity at 1 µM (JNK2; 1 µM): 109% | remaining activity at 1 µM (PDK1; 1 µM): 87% | remaining activity at 1 µM (EPH-B1; 1 µM): 108% | remaining activity at 1 µM (JAK2; 1 µM): 94% | remaining activity at 1 µM (SYK; 1 µM): 103% | remaining activity at 1 µM (MINK1; 1 µM): 116% | remaining activity at 1 µM (IRAK4; 1 µM): 98%
